{"source": "patent US4550186A", "about": "“Binuclear copper (II) carboxylates formed from amine-carboxyboranes” (Duke University, priority 1983, dated 1985)", "molecular_target": "T1, ATP Dependent Citrate Lyase (Mus musculus, UniProt Q91V92)", "T1 construct": "10% homogenates of CF1 male mouse liver; from tissue; host or cells: CF1 male mouse liver, 10% homogenate", "T1 sequence (Q91V92 1-1091)": "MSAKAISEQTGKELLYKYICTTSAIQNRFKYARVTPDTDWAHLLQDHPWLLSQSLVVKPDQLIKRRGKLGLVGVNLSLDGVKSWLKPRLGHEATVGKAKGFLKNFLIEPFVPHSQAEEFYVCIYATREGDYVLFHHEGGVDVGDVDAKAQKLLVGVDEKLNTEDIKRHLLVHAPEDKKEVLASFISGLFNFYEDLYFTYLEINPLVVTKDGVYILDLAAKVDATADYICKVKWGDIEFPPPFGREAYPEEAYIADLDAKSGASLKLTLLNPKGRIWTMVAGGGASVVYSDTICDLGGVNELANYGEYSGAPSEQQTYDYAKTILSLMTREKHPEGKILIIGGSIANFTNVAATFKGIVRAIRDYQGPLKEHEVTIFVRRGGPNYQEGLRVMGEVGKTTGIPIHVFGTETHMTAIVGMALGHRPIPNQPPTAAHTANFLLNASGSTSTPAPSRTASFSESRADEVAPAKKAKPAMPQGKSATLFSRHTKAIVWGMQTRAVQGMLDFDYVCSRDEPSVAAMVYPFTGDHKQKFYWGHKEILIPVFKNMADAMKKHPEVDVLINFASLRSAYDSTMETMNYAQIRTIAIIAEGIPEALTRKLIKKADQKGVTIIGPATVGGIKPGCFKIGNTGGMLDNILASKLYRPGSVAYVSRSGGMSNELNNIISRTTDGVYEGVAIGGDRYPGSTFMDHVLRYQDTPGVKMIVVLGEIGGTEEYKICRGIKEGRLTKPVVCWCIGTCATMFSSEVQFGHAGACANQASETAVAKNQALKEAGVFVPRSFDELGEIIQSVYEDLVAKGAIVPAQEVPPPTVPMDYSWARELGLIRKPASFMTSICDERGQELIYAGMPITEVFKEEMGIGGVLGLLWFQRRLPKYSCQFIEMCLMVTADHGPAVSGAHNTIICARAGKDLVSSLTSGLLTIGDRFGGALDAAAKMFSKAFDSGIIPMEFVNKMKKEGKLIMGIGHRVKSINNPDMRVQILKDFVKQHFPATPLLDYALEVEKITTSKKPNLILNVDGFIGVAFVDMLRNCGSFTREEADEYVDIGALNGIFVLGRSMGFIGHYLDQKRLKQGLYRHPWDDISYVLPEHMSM", "experiment": "In vitro liver enzyme study: ATP dependent citrate lyase", "assay_type": "biochemical", "conditions": "in vitro CF1 liver, 30 min", "experimental": "In vitro enzymatic studies were determined using 10% homogenates of CF1 male mouse liver with 50-200 μM of test drugs. In vivo enzymatic studies were determined using 10% homogenates of liver from CF1 male mice obtained after administering the agents for 16 days at a dose ranging from 2.5-20 mg/kg/day intraperitoneally. The liver homogenates for both in vitro and in vivo studies were prepared in 0.25M sucrose and 0.001M (ethylenedinitrilo)tetraacetic acid. Acetyl coenzyme A synthetase and adenosine triphosphate dependent citrate lyase activities were determined spectrophotometrically at 540 nm as the hydroxylamate of acetyl coenzyme A formed after 30 min at 37° C. Mitochondrial citrate exchange was determined by the procedure of Robinson et al [Eur. J. Biochem., 216, 63 (1970)] using ^14 C-sodium bicarbonate (41 mCi/mmol) incorporated into mitochondrial ^14 C-citrate after isolating rat mitochondria (9000 g×10 min) from the homogenates. The exchanges of the ^14 C-citrate were determined after incubating the mitochondrial fraction which was loaded with labeled citrate and test drugs for 10 min. Then the radioactivity was measured in the mitochondrial and supernantant fractions in scintillation fluid and expressed as a percentage. Cholesterol side chain oxidation was determined by the method of Kritchevsky and Tepper [Artherosclerosis, 18, 93 (1973)] using (26-^14 C) cholesterol (50 mCi/mmol) and mitochondria isolated from rat liver homogenates. […] Fatty acid synthetase activity was determined by the method of Brady et al [J. Biol. Chem., 235, 3093 (1960)] using [2-^14 C] malonyl-coenzyme A (37.5 mCi/mmol) which was incorporated into newly synthesized fatty acids that were extracted with ether and counted. Acyl transferase activity was determined with glycerol-3phosphate [L-2-^3 H(N)] […] HCl and counted. Phosphatidate phosphohydrolase activity was measured as the inorganic phosphate released after 30 min from phosphatidic acid by the method of Mavis et al [J. Lipid Res., 19, 467 (1978)]. […]"}
{"substance": "{Cu[(CH3)3 N.BH2 CO2 ]2.(CH3)3 N.BH2 COOH} [Compound I]", "values": [{"measurement": "ATP Dependent Citrate Lyase", "setting": "50 μM", "value": "110 ± 6", "unit": "Percent Control"}, {"measurement": "ATP Dependent Citrate Lyase", "setting": "100 μM", "value": "98 ± 5", "unit": "Percent Control"}, {"measurement": "ATP Dependent Citrate Lyase", "setting": "200 μM", "value": "105 ± 7", "unit": "Percent Control"}]}
